Assay results published in ChEMBL document CHEMBL1201862, “PubChem BioAssay data set” (2004).
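Growth conditions: 96-well plates. Treatment: test compound, 48 hours, 5 concentrations. Analysis: linear interpolation between bracketing concentrations; unreached endpoints set to highest concentration. GI50: concentration for 50% inhibition of growth.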 Calls of active or inactive are those of the source. Cut-off read from the data, not from the text of the source: active = GI50 up to about 1.1 µM and inactive = higher. Where a SMILES comes first, the peptide text is derived from it. The star is where a group is joined. CH2Cl = ClC*

How the values were obtained:
Test in all cases: DTP human tumour cell line panel, 48 h
[1] = test system: A549
[2] = test system: HCC 2998
[3] = test system: IGROV-1
[4] = test system: K562
[5] = test system: LOX IMVI
[6] = test system: M14
[7] = test system: MDA-N
[8] = test system: NCI-H23
[9] = test system: OVCAR-3
[10] = test system: OVCAR-8
[11] = test system: SF-268
[12] = test system: SF-539
[13] = test system: SNB-19
[14] = test system: SNB-75
[15] = test system: SR
[16] = test system: TK-10
[17] = test system: U-251
[18] = test system: UACC-62
[19] = test system: UO-31

Measured: GI50

CC[P+](c1ccccc1)(N(C)C)N(C)C
inactive: [1] > 100 µM | [2] > 100 µM | [3] > 100 µM | [4] > 100 µM | [5] > 100 µM | [6] > 100 µM | [7] > 100 µM | [8] > 100 µM | [9] > 100 µM | [10] > 100 µM | [11] 95.1 µM | [12] > 100 µM | [13] > 100 µM | [14] > 100 µM | [15] > 100 µM | [16] > 100 µM | [17] 53.8 µM | [18] > 100 µM | [19] > 100 µM

Cc1c2c(c(O)c3c(O)cccc13)C(=O)C1(O)C(=O)C(C(=O)NCNc3ccc(C(N)=O)cn3)=C(O)C(N(C)C)C1C2 (stereo unspecified)
inactive: [1] 2.96 µM | [2] 3.07 µM | [3] 1.82 µM | [4] 2.4 µM | [5] 4.78 µM | [6] 3.63 µM | [7] 4.49 µM | [8] 7.74 µM | [9] 2.49 µM | [10] 3.21 µM | [11] 3.61 µM | [12] 2.52 µM | [14] 2.84 µM | [15] 3.05 µM | [16] 5.15 µM | [17] 2.6 µM | [18] 3.39 µM

CN(C)CCCc1c[nH]c2ccccc12
inactive: [1] > 100 µM | [2] > 100 µM | [3] > 100 µM | [4] > 100 µM | [5] > 100 µM | [6] > 100 µM | [7] > 100 µM | [8] > 100 µM | [9] > 100 µM | [10] > 100 µM | [11] > 100 µM | [12] > 100 µM | [13] > 100 µM | [14] > 100 µM | [15] > 100 µM | [16] > 100 µM | [17] > 100 µM | [18] > 100 µM | [19] > 100 µM

CC(=O)NC(CC(C)C)C(=O)NC(Cc1ccccc1)C(=O)CCl (stereo not drawn) (Ac-Leu-Phe-CH2Cl; configuration not given here)
inactive: [1] 20.7 µM | [2] 14.9 µM | [3] 16.1 µM | [4] 1.63 µM | [5] 2.67 µM | [6] 6.89 µM | [7] 9.68 µM | [8] 13.1 µM | [9] 13.2 µM | [10] 4.69 µM | [11] 17.9 µM | [12] 18.1 µM | [13] 20 µM | [14] 14.1 µM | [15] 2.55 µM | [16] 10.4 µM | [17] 16.6 µM | [18] 11.7 µM | [19] 14.6 µM

O=C(N/N=C/c1c(-c2ccccc2)no[n+]1[O-])N1CCOCC1
active: [15] 0.264 µM
inactive: [1] > 100 µM | [2] > 100 µM | [3] > 100 µM | [4] > 100 µM | [5] > 100 µM | [6] > 100 µM | [7] > 100 µM | [8] > 100 µM | [9] > 100 µM | [10] > 100 µM | [11] > 100 µM | [12] > 100 µM | [13] > 100 µM | [14] > 100 µM | [16] > 100 µM | [17] > 100 µM | [18] > 100 µM | [19] > 100 µM

O=c1cc(-c2ccccc2)[nH]c2ccc(N3CCOCC3)cc12
inactive: [16] 55 µM | [19] 13.2 µM
active: [1] 0.0773 µM | [2] 0.0468 µM | [3] 0.0518 µM | [4] < 0.0127 µM | [5] 0.0335 µM | [6] 0.0173 µM | [7] < 0.01 µM | [8] 0.0414 µM | [9] 0.0148 µM | [10] 0.042 µM | [11] 0.0407 µM | [12] < 0.0149 µM | [13] 0.0434 µM | [14] 0.0143 µM | [15] < 0.017 µM | [17] 0.0185 µM | [18] < 0.0268 µM

CN(C)c1ccc(C2=C([O-])c3cc(-[n+]4ccccc4)ccc3C2=O)cc1
inactive: [1] > 100 µM | [2] > 100 µM | [3] > 100 µM | [4] > 100 µM | [5] > 100 µM | [7] > 100 µM | [8] > 100 µM | [9] > 100 µM | [10] > 100 µM | [11] > 100 µM | [12] > 100 µM | [13] > 100 µM | [14] > 100 µM | [15] > 100 µM | [16] > 100 µM | [17] > 100 µM | [19] > 100 µM

CNC(=S)N1CCN(C(C)=O)C1=S
inactive: [1] 38.8 µM | [2] 31.9 µM | [3] 44.9 µM | [4] 54.2 µM | [5] 76.7 µM | [6] 42.4 µM | [7] 51.8 µM | [8] 27.7 µM | [9] 35.4 µM | [10] 92.5 µM | [11] 54.8 µM | [12] 20.4 µM | [14] 26.5 µM | [15] 23.7 µM | [16] > 100 µM | [17] 4.02 µM | [18] 43.7 µM | [19] 50.7 µM

COc1cc2c(c(OC)c1OC)C(=O)c1c(O)cc(C)c(OC)c1C2=O
inactive: [1] 77.3 µM | [2] > 100 µM | [3] > 100 µM | [4] > 10 µM | [5] 86.3 µM | [6] > 100 µM | [7] > 100 µM | [8] > 100 µM | [9] > 100 µM | [10] > 100 µM | [11] > 100 µM | [12] 75.5 µM | [13] 77.1 µM | [14] > 100 µM | [15] > 100 µM | [16] 27.2 µM | [17] 94 µM | [19] 85.3 µM

Cc1ccc2nc(Cl)c(/C=N/N3C(=O)/C(=C/c4cccc([N+](=O)[O-])c4)N=C3c3ccccc3)cc2c1
inactive: [1] 60.1 µM | [2] 67.5 µM | [3] 31.2 µM | [4] 47.6 µM | [5] 87.1 µM | [6] 63.1 µM | [7] 20.4 µM | [9] 30.5 µM | [10] 72.4 µM | [11] 97.1 µM | [12] > 100 µM | [13] > 100 µM | [14] 59.6 µM | [15] 19.8 µM | [16] > 100 µM | [17] 89.7 µM | [18] 34 µM | [19] 38 µM

CCOC(=O)Nc1sc2c(c1C#N)CC(C)CC2 (stereo unspecified)
inactive: [1] 5.06 µM | [2] 2.24 µM | [3] 7.52 µM | [4] 2.38 µM | [5] 10.2 µM | [6] 2.66 µM | [7] 1.6 µM | [8] 25.6 µM | [9] 5.87 µM | [10] 8.75 µM | [11] 10.7 µM | [13] 3.16 µM | [14] 2.82 µM | [15] 1.4 µM | [16] 6.62 µM | [17] 5.42 µM | [18] 4.49 µM | [19] 8.91 µM
